The values below are quoted from earlier work in publication PMC10465233, “Lys-urea-Aad, Lys-urea-Cmc and Lys-urea-Cms as potential pharmacophores for the design of PSMA-targeted radioligands to reduce off-target uptake in kidneys and salivary glands” (Theranostics, 2023).

This data set concerns LNCaP tumor-bearing mice. Particulars: cited from earlier work.

As for `O=C([O-])CN1CCN(CC(=O)[O-])CCN(CC(=O)NCC2CCC(C(=O)NC(Cc3c4ccccc4cc4ccccc34)C(=O)NCCCCC(NC(=O)NC(CCC(=O)O)C(=O)O)C(=O)O)CC2)CCN(CC(=O)[O-])CC1.[68Ga+3]` (stereo not shown) [[^68Ga]Ga-HTK03141], the Peaked tumor uptake is 23.1 %ID/g. For the same compound, for the setting “1 h post-injection”, the Kidney uptake was 170±26.4 %ID/g and the Tumor uptake is 23.1±6.11 %ID/g. For the same compound, the Salivary gland uptake (1 h post-injection, unreported data in b5) is recorded as 4.99±0.88 %ID/g.
